Experimental findings from patent US9492508B2, “Parathyroid hormone analogs and uses thereof” (The General Hospital Corporation, priority 2010, dated 2016) are described below.

The nature of series [1]: Solubility, in vitro precipitation assay (PBS pH 7.4 vs 10 mM acetic acid). Format: physicochemical. Particulars: PBS pH 7.4, 1 h room temperature, FIG. 16A. On the procedure:
The relative solubilities of SP-PTH-AAK (SEQ ID NO:4) and SP-PTH (SEQ ID NO:11) in different buffers were assessed in an in vitro precipitation assay. For each polypeptide, two vials, each containing 50 μg of lyophilized polypeptide powder, were prepared; one vial was reconstituted in 50 μl of PBS at pH 7.4; the other vial was reconstituted in 50 μl of 10 mM acetic acid (pH 2.9) to give final concentrations of 1.0 mg/ml […]. After one hour at room temperature, the vials were centrifuged at 15,000×g for 2 minutes. The supernatant was removed and the protein content assayed using the Pierce BCA assay (Thermo Fischer Scientific, Rockford, Ill.). For each polypeptide, the content of the PBS sample was expressed as percent of the content of the corresponding acetic acid sample.

Another series is described as follows: in vivo. The following applies: rat, iv, 24.3 nmol/kg.
Series [2] in a line: Stability in phosphate-citrate buffers and 10 mM acetic acid, reverse-phase HPLC. Type of series: physicochemical. Particulars: 4 weeks. The method, then:
The amount of intact SP-PTH-AAK (SEQ ID NO:4) peptide remaining in the sample, as compared to the starting sample, was measured by rPHPLC.
Stability testing of SP-PTH-AAK (SEQ ID NO:4) was also performed. SP-PTH-AAK (SEQ ID NO:4) was stored at different peptide concentrations in 50 mM phosphate-citrate (PC) buffer (pH 4.0, 4.5, and 5.5) and 10 mM acetic acid at 5, 25, and 40° C. for 4 weeks.

The conditions of series [3]: rat, in vivo, iv, 24.3 nmol/kg.
Series [4] in a line: Repetitive daily dosing in TPTX rats (10 days). Type of series: in vivo, rat. On the procedure:
FIGS. 20A-20D are graphs showing effects of once-daily SP-PTH on serum and urine Ca in TPTX rats. TPTX and sham-control rats were treated once daily, for 10 days, via sc. injection with either vehicle (Sham and TPTX) or SP-PTH (SEQ ID NO:11) (1, 2. 4, or 8 nmol/kg), or with 1,25(OH)2D (0.075 or 0.2 μg/kg. orn). After the last injection on day 10, the rats were placed in metabolic cages, and jugular vein blood was obtained at 8 (FIG. 20A) and 24 hrs (FIG. 20B); urine was collected for the intervals 0-8 (FIG. 20C) and 8-24 hrs (FIG. 20D); means±s.e.m: n=5; ′˜, P vs vehicle <005.
In therapeutic use in humans, one would administer doses sufficient to only normalize blood Ca. A key experiment is to determine if it is indeed feasible to normalize sCa following a repetitive dosing regimen. We thus performed the experiment of FIGS. 20A-2D, in which TPTX rats were treated daily for 10 days with SP-PTH at doses of 1, 2, 4 and 8 nmol/kg (s.c). For comparison, 1,25(OH)2-vitamin-D (calcitriol) at doses of 0.075 and 0.2 mcg/kg (oral) were used for the same time periods.

[5] abbreviates: 4 nmol/kg s.c. once daily 10 days.

Ends that are not written are not given here.

A word on the MRT: it is the average time that molecules of a dose stay in the body. The Vd is a proportionality between amount in the body and measured concentration, not a real space. Low values mean confinement near the circulation, high ones extensive tissue distribution. In general, clearance refers to the volume of plasma or blood freed of the substance per unit of time. In general, half-life refers to the time needed for the level to fall by half in the phase considered. A high value points to slow decline. Broadly, the AUC(0-t) is the area under the concentration-time curve up to a stated or last time point. A low value points to low exposure. As for “AVAEIQLMHQRAKWIQDARRRAFLHKLIAEIHTAEI-OH [SP-PTH-AAK, [Ala^1,3,12,18,22,Gln^10,Arg^11,Trp^14,Lys^26]PTH(1-14)/PTHrP(15-36)]”, the “solubility in PBS pH 7.4 (percent of acetic acid sample), in words” value in series [1] is on record as “solubility similar to hPTH(1-34)NH2”. For the same substance, in “in vivo” (Crl:CD(SD)), the MRT was 5.83 min, the Vd stood at 0.126 L/kg, the clearance came to 21.6 mL/min/kg and the half-life is 7.27 min. In the series “in vivo”, the AUC(0-t) was 0.0187 µM·h. In series [2] (50 mM PC buffer pH 4.0, 4.5, 5.5 and 10 mM acetic acid, 25° C.), the “stability, intact peptide by reverse-phase HPLC at 25° C.” value was “near full stability”. In addition, the “stability at 40° C., HPLC finding” value in series [2] (40° C.) was “a degraded product, likely a methionine-oxide derivative, was detected”. The substance also had an AUCinf in series [3] of 1131 pmol·min/mL.
As to “AVAEIQLMHQRAKWIQDLRRRFFLHHLIAEIHTAEI-OH [SP-PTH, [Ala^1,3,12,Gln^10,Arg^11,Trp^14]PTH(1-14)/PTHrP(15-36)]”, in series [4] (setting [5]), the “sCa at 8 hours after the last injection” value is recorded as “avoided hypercalcemia” and the “sCa at 24 hours after the last injection” value is recorded as “maintained near-normal sCa”. Further, in series [4] (SP-PTH 4 nmol/kg s.c. once daily 10 days), the urine calcium excretion result is “low at all time points”.
